Measurements as given in patent US20090285773A1, “Hepatitis C Virus Inhibitors” (Bristol-Myers Squibb Company, priority 2008, published 2009).

Legend:
[1] = target: T1, human liver cathepsin B (Homo sapiens, UniProt P07858); test: Specificity assay, cathepsin B; type: biochemical; details: read-out: Cathepsin B activity in the specificity assays
T1 construct: host or cells: human liver
Experimental: The specificities of compounds of the present disclosure were determined against a variety of serine proteases: human neutrophil elastase (HNE), porcine pancreatic elastase (PPE) and human pancreatic chymotrypsin and one cysteine protease: human liver cathepsin B. In all cases a 96-well plate format protocol using a fluorometric Amino-Methyl-Coumarin (AMC) substrate specific for each enzyme was used as described previously (PCT Patent Application No. WO 00/09543) with some modifications to the serine protease assays. All enzymes were purchased from Sigma, EMDbiosciences while the substrates were from Bachem, Sigma and EMDbiosciences.
Compound concentrations varied from 100 to 0.4 μM depending on their potency. The enzyme assays were each initiated by addition of substrate to enzyme-inhibitor pre-incubated for 10 min at room temperature and hydrolysis to 15% conversion as measured on cytofluor. […]
The percentage of inhibition was calculated using the formula: […]

[2] = target: T2, HCV NS3/4A protease complex, H77 strain (1a genotype) (Hepatitis C virus genotype 1a, UniProt P27958, C1454S/C1711G); test: FRET peptide assay, HCV NS3/4A protease complex, H77 strain; type: biochemical
T2 construct: DNA encoding the recombinant HCV NS3/4A protease complex (amino acids 1027 to 1711) for these strains; His tag (inferred from pET21b vector and Ni-NTA purification); made in house; host or cells: Escherichia coli BL21 (DE3)
T2 sequence (P27958 1027-1711 C1454S/C1711G, one chain of several): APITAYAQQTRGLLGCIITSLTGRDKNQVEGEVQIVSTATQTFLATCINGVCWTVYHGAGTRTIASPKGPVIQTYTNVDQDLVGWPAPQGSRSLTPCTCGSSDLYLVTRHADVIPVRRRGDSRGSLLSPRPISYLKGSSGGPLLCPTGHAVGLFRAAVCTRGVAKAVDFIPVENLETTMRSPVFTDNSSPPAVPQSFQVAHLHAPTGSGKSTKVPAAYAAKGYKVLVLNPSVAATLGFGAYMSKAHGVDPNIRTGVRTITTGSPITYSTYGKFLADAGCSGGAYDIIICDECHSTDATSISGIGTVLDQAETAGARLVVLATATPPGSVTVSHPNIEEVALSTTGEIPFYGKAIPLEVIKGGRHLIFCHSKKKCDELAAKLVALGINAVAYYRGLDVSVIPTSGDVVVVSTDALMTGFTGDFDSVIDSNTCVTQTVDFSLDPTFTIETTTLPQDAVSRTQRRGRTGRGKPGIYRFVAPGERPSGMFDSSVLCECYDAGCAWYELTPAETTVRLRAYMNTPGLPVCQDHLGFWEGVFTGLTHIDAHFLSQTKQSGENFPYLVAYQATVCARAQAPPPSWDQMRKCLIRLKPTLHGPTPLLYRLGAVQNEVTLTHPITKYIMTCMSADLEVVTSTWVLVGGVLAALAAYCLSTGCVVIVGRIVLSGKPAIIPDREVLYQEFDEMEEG
Source text: HCV NS3 protease complexes, derived from the BMS strain, H77 strain or J4L6S strain, were generated, as described below. These purified recombinant proteins were generated for use in a homogeneous assay (see below) to provide an indication of how effective compounds of the present disclosure would be in inhibiting HCV NS3 proteolytic activity.
Serum from an HCV-infected patient was obtained from Dr. T. Wright, San Francisco Hospital. An engineered full-length cDNA (compliment deoxyribonucleic acid) template of the HCV genome (BMS strain) was constructed from DNA fragments obtained by reverse transcription-PCR (RT-PCR) of serum RNA (ribonucleic acid) and using primers selected on the basis of homology between other genotype 1a strains. From the determination of the entire genome sequence, a genotype 1a was assigned to the HCV isolate according to the classification of Simmonds et al. (See P Simmonds, K A Rose, S Graham, S W Chan, F McOmish, B C Dow, E A Follett, P L Yap and H Marsden, J. Clin. Microbiol., 31(6), 1493-1503 (1993)). […]

In the case of COc1ccc2c(O[C@@H]3C[C@H]4C(=O)N[C@]5(C(=O)NS(=O)(=O)C6CC6)C[C@H]5/C=C\CCCCC[C@H](Nc5ccc(OC)nc5)C(=O)N4C3)nccc2c1 (single isomer, unassigned) [Compound 1], the IC50 [1] is reported as > 25000 nM and the IC50 [2] is reported as 1.9 nM.
